One may read the IC50 as the concentration at which inhibition is half-maximal.

Sequence of recombinant Human Phosphodiesterase B2 (PDE4B2) (Q07343 1-564 isoform Q07343-2): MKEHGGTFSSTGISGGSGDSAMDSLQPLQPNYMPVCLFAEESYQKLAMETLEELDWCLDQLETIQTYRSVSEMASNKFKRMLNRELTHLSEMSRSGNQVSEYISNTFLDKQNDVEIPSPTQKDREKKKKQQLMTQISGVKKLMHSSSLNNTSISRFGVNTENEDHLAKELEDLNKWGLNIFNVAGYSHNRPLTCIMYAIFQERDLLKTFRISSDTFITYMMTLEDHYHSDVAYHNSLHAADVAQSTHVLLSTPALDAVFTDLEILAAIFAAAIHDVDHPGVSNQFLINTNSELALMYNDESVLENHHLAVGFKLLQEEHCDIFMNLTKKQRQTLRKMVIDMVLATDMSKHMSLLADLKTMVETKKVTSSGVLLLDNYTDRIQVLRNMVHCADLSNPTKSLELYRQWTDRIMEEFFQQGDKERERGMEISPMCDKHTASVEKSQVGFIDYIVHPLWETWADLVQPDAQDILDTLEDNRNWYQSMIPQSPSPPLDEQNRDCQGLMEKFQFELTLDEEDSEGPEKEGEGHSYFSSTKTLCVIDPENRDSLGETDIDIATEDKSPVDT

In the assay the target is recombinant Human Phosphodiesterase B2 (PDE4B2) (Homo sapiens, UniProt Q07343). Description: Human Phosphodiesterase B2 Alpha Screen Assay. Type of assay: biochemical. The note with it: Alpha Screen cAMP assay. The protocol:
Human Phosphodiesterase B2 Alpha Screen Assay
The assay uses recombinant Human Phosphodiesterase B2 (PDE4B2) produced in house (PrAZL0133), stored at −20° C. The substrate uses cAMP, part of the Alpha Screen cAMP kit (Perkin Elmer, Cat# 6760625M), stored at 4° C. The Alpha Screen kit also includes biotinylated cAMP, acceptor and donor beads.
The assay additions were as follows: Test compounds and controls were added to white 384-well flat-bottom plates (Greiner, Cat# 781075), 0.2 μl in 100% DMSO, followed by 10 μl PDE4B2 in reaction buffer. The reaction buffer constitution was: 50 mM Tris (pH 7.5), 8.3 mM MgCl2, 1.7 mM EGTA and 0.01% (w/v) Brij®35. The enzyme and the compounds were incubated at room temperature for 15 minutes. Then 10 μl cAMP in reaction buffer was added. The assay was stopped after 60 minutes incubation at room temperature by adding 10 μl acceptor beads in detection buffer with 40 mM EDTA. The detection buffer constitution was: 5 mM Tris (pH 7.5), 0.1% (w/v) BSA and 0.1% (v/v) Tween 20. This addition followed by an addition of 10 μl donor beads in detection buffer, with biotinylated cAMP. The plates were then incubated, dark at room temperature, for 5 hours followed by measurement on a Fusion™-α analyser. IC50 values (presented in Table 4) were determined using Xlfit curve fitting using model 205.
For the compound `O=C(CCc1cccc(O)c1)N[C@H]1CC[C@@H](n2c(=O)c3cc(F)cnc3n(C3CCSCC3)c2=O)CC1` [Example 19, N-{cis-4-[6-fluoro-2,4-dioxo-1-(tetrahydro-2H-thiopyran-4-yl)-1,4-dihydropyrido[2,3-d]pyrimidin-3(2H)-yl]cyclohexyl}-3-(3-hydroxyphenyl)propanamide], the IC50 stood at 2.53 nM.
For the compound `O=C(CNC(=O)c1ccccc1O)N[C@H]1CC[C@@H](n2c(=O)c3cc(F)cnc3n(C3CCSCC3)c2=O)CC1` [Example 6, N-[2-({cis-4-[6-fluoro-2,4-dioxo-1-(tetrahydro-2H-thiopyran-4-yl)-1,4-dihydropyrido[2,3-d]pyrimidin-3(2H)-yl]cyclohexyl}amino)-2-oxoethyl]-2-hydroxybenzamide], the IC50 came out at 1.02 nM.
As for `O=C(N[C@H]1CC[C@@H](n2c(=O)c3cc(F)cnc3n(C3CCSCC3)c2=O)CC1)c1cccn2ccnc12` [Example 25, N-{cis-4-[6-fluoro-2,4-dioxo-1-(tetrahydro-2H-thiopyran-4-yl)-1,4-dihydropyrido[2,3-d]pyrimidin-3(2H)-yl]cyclohexyl}imidazo[1,2-a]pyridine-8-carboxamide], the IC50 came to 5.59 nM.
With `O=C(N[C@H]1CC[C@@H](n2c(=O)c3cc(F)cnc3n(C3CCSCC3)c2=O)CC1)[C@H](O)C1CCCCC1` [Example 12, (2R)-2-cyclohexyl-N-{cis-4-[6-fluoro-2,4-dioxo-1-(tetrahydro-2H-thiopyran-4-yl)-1,4-dihydropyrido[2,3-d]pyrimidin-3(2H)-yl]cyclohexyl}-2-hydroxyacetamide] the figure was 0.887 nM.
With `O=C(N[C@H]1CC[C@@H](n2c(=O)c3cc(F)cnc3n(C3CCSCC3)c2=O)CC1)C1CC1` [Example 1, N-{cis-4-[6-Fluoro-2,4-dioxo-1-(tetrahydro-2H-thiopyran-4-yl)-1,4-dihydropyrido[2,3-d]pyrimidin-3(2H)-yl]cyclohexyl}cyclopropanecarboxamide] the figure was 4.59 nM; with `Cc1ccc(C(=O)N[C@H]2CC[C@@H](n3c(=O)c4cc(F)cnc4n(C4CCSCC4)c3=O)CC2)c(O)c1` [Example 9, N-{cis-4-[6-fluoro-2,4-dioxo-1-(tetrahydro-2H-thiopyran-4-yl)-1,4-dihydropyrido[2,3-d]pyrimidin-3(2H)-yl]cyclohexyl}-2-hydroxy-4-methylbenzamide], 3.75 nM.
With `O=C(N[C@H]1CC[C@@H](n2c(=O)c3cc(F)cnc3n(C3CCSC3)c2=O)CC1)c1ccccc1O` (relative stereo) [Example 30, N-{cis-4-[6-fluoro-2,4-dioxo-1-(tetrahydro-3-thienyl)-1,4-dihydropyrido[2,3-d]pyrimidin-3(2H)-yl]cyclohexyl}-2-hydroxybenzamide] the figure was 6.45 nM.
Regarding `O=C(Cc1ccc(O)cc1)N[C@H]1CC[C@@H](n2c(=O)c3cc(F)cnc3n(C3CCSCC3)c2=O)CC1` [Example 15, N-{cis-4-[6-fluoro-2,4-dioxo-1-(tetrahydro-2H-thiopyran-4-yl)-1,4-dihydropyrido[2,3-d]pyrimidin-3(2H)-yl]cyclohexyl}-2-(4-hydroxyphenyl)acetamide], the IC50 came to 1.75 nM.
The result for `O=C(N[C@H]1CC[C@@H](n2c(=O)c3cc(F)cnc3n(C3CCSCC3)c2=O)CC1)c1ccc(O)cc1` [Example 16, N-{cis-4-[6-fluoro-2,4-dioxo-1-(tetrahydro-2H-thiopyran-4-yl)-1,4-dihydropyrido[2,3-d]pyrimidin-3(2H)-yl]cyclohexyl}-4-hydroxybenzamide] reads 1.69 nM; that for `Cc1ccc(C(=O)N[C@H]2CC[C@@H](n3c(=O)c4cc(F)cnc4n(C4CCSCC4)c3=O)CC2)cc1O` [Example 10, N-{cis-4-[6-fluoro-2,4-dioxo-1-(tetrahydro-2H-thiopyran-4-yl)-1,4-dihydropyrido[2,3-d]pyrimidin-3(2H)-yl]cyclohexyl}-3-hydroxy-4-methylbenzamide], 1.12 nM; that for `O=C(N[C@H]1CC[C@@H](n2c(=O)c3cc(F)cnc3n(C3CCSCC3)c2=O)CC1)c1cc(CO)ccc1O` [Example 26, N-{cis-4-[6-fluoro-2,4-dioxo-1-(tetrahydro-2H-thiopyran-4-yl)-1,4-dihydropyrido[2,3-d]pyrimidin-3(2H)-yl]cyclohexyl}-2-hydroxy-5-(hydroxymethyl)benzamide], 4.31 nM.
The result for `O=C(N[C@H]1CC[C@@H](n2c(=O)c3cc(F)cnc3n(C3CCSCC3)c2=O)CC1)C1CCCCC1` [Example 18, N-{cis-4-[6-fluoro-2,4-dioxo-1-(tetrahydro-2H-thiopyran-4-yl)-1,4-dihydropyrido[2,3-d]pyrimidin-3(2H)-yl]cyclohexyl}cyclohexanecarboxamide] reads 2.15 nM; that for `O=C(N[C@H]1CC[C@@H](n2c(=O)c3cc(F)cnc3n(C3CCSCC3)c2=O)CC1)c1cc2ccccn2n1` [Example 4, N-{cis-4-[6-fluoro-2,4-dioxo-1-(tetrahydro-2H-thiopyran-4-yl)-1,4-dihydropyrido[2,3-d]pyrimidin-3(2H)-yl]cyclohexyl}pyrazolo[1,5-a]pyridine-2-carboxamide], 0.674 nM; that for `O=C(N[C@H]1CC[C@@H](n2c(=O)c3cc(F)cnc3n(C3CCSC3)c2=O)CC1)c1cn2ccccc2n1` (relative stereo) [Example 28, N-{cis-4-[6-fluoro-2,4-dioxo-1-(tetrahydro-3-thienyl)-1,4-dihydropyrido[2,3-d]pyrimidin-3(2H)-yl]cyclohexyl}imidazo[1,2-a]pyridine-2-carboxamide], 0.97 nM.
The result for `COc1ccc(C(=O)N[C@H]2CC[C@@H](n3c(=O)c4cc(F)cnc4n(C4CCSCC4)c3=O)CC2)cc1O` [Example 7, N-{cis-4-[6-fluoro-2,4-dioxo-1-(tetrahydro-2H-thiopyran-4-yl)-1,4-dihydropyrido[2,3-d]pyrimidin-3(2H)-yl]cyclohexyl}-3-hydroxy-4-methoxybenzamide] reads 0.874 nM.
Turning to `O=C(N[C@H]1CC[C@@H](n2c(=O)c3cc(F)cnc3n(C3CCSCC3)c2=O)CC1)c1cn2ccccc2n1` [Example 2, N-{cis-4-[6-Fluoro-2,4-dioxo-1-(tetrahydro-2H-thiopyran-4-yl)-1,4-dihydropyrido[2,3-d]pyrimidin-3(2H)-yl]cyclohexyl}imidazo[1,2-a]pyridine-2-carboxamide], the IC50 was found to be 1.1 nM.
The result for `O=C(N[C@H]1CC[C@@H](n2c(=O)c3cc(F)cnc3n(C3CCSCC3)c2=O)CC1)C(O)c1ccccc1` (relative stereo) [Example 22, N-{cis-4-[6-fluoro-2,4-dioxo-1-(tetrahydro-2H-thiopyran-4-yl)-1,4-dihydropyrido[2,3-d]pyrimidin-3(2H)-yl]cyclohexyl}-2-hydroxy-2-phenylacetamide] reads 0.877 nM; that for `Cc1ccc(C(=O)N[C@H]2CC[C@@H](n3c(=O)c4cc(F)cnc4n(C4CCSC4)c3=O)CC2)c(O)c1` (relative stereo) [Example 31, N-{cis-4-[6-fluoro-2,4-dioxo-1-(tetrahydro-3-thienyl)-1,4-dihydropyrido[2,3-d]pyrimidin-3(2H)-yl]cyclohexyl}-2-hydroxy-4-methylbenzamide], 2.75 nM.
With `O=C(N[C@H]1CC[C@@H](n2c(=O)c3cc(F)cnc3n(C3CCSCC3)c2=O)CC1)c1cccc(O)c1` [Example 14, N-{cis-4-[6-fluoro-2,4-dioxo-1-(tetrahydro-2H-thiopyran-4-yl)-1,4-dihydropyrido[2,3-d]pyrimidin-3(2H)-yl]cyclohexyl}-3-hydroxybenzamide] the figure was 1.8 nM.

Values taken from patent US20090233907A1, “Pyridopyrimidine Derivatives and Their Use as PDE4 Inhibitors” (ASTRAZENECA AB, priority 2006, published 2009).
